Assay results: US20230339835A1, “2,3,5-TRIMETHYL-6-NONYLCYCLOHEXA-2,5-DIENE-1,4-DIONE FOR SUPPRESSING AND TREATING ALPHA-SYNUCLEINOPATHIES, TAUOPATHIES, AND OTHER DISORDERS” (PTC THERAPEUTICS, INC., priority 2018, published 2023)

How the values were obtained:
[1] = biological target: T1, pre-formed fibrils (PFFs) of human wild-type Tau K18 fragment (Homo sapiens, UniProt P10636); assay: Cell-free Tau K18 WT pre-formed fibril disaggregation assay (Thioflavin T); format: biochemical; conditions: 10 μM Tau PFFs, 30 μM compound, 94 hr, vs vehicle (Dunnett's test)
T1 construct: human recombinant Tau K18 WT fragment were generated by incubating the Tau K18 monomer (Bio-Techne®); purchased Bio-Techne
T1 sequence (P10636 561-685 limits assumed): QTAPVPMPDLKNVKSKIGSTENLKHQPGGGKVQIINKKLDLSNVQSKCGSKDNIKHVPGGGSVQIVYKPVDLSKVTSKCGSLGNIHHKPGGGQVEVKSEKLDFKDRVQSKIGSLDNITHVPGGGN
Description: Summary: Compounds 2,3,5-trimethyl-6-nonylcyclohexa-2,5-diene-1,4-dione (C9), 2,3,5-trimethyl-6-octylcyclohexa-2,5-diene-1,4-dione (C8), and 2,3,5-trimethyl-6-heptylcyclohexa-2,5-diene-1,4-dione (C7) were tested for their ability to disaggregate pre-formed fibrils (PFFs) of human wild-type Tau K18 fragment, as measured by the decrease in fluorescence intensity of the aggregate-binding fluorophore, Thioflavin T, over time.
Experimental Methods: Pre-formed fibrils (PFFs) of the human recombinant Tau K18 WT fragment were generated by incubating the Tau K18 monomer (Bio-Techne®) with sodium heparin in a 1:1 ratio in presence of excess (50×) tris(2-carboxyethyl)phosphine (TCEP) as the reducing agent in Dulbecco's phosphate-buffered saline (DPBS) buffer (pH 7.4). The mixture was incubated for 4 days at 37° C. without agitation to yield PFFs in 100 μM final concentration.
Cell-free Tau disaggregation assays were set up with 10 μM of Tau PFFs in the presence of 30 μM of compound (from 10 mM stocks in DMSO) or in 0.3% (v/v) DMSO as vehicle. All solutions were prepared in DPBS buffer (pH 7.4) with 0.03% (v/v) NaN3 and 5 μM Thioflavin T (ThT), prepared as a master mix before addition of the protein or compounds. A protein master mix was first prepared the day before the assay to pre-equilibrate the Tau PFFs at 10 μM at ambient temperature and atmosphere. The next day, the pre-mixed protein solution was separated into 4 tubes (1 per condition). […]
(§1) Tau PFFs solution+/−compound and background samples were then loaded into wells of an optically transparent 96-well plate with black walls, which was sealed with a LightCycler® 480 seal (Roche Life Science), incubated at 37° C. for 15 minutes to equilibrate and the data collection was initiated. A Tecan M1000 spectrometer was used to collect data points on ThT fluorescence (ex/em 450/490 nm) every 30 minutes without agitation.
Data Analysis and Results: The maximum fluorescence intensity unit (FIU) value of the vehicle-treated Tau samples was set to 100%, to which all other FIU values were normalized relatively. […]

[2] = biological target: T2, recombinant human αSynuclein (Homo sapiens, UniProt P37840); assay: Cell-free αSynuclein aggregation assay (Thioflavin T); format: biochemical; conditions: 200 μM αSynuclein, 100 μM compound, t=24 hours, one-way ANOVA with Tukey's test
T2 construct: purchased Proteos, Inc
Description: Summary: The compound 2,3,5-trimethyl-6-nonylcyclohexa-2,5-diene-1,4-dione (“C9”), and its C8 (2,3,5-trimethyl-6-octylcyclohexa-2,5-diene-1,4-dione) and C7 (2,3,5-trimethyl-6-heptylcyclohexa-2,5-diene-1,4-dione) analogs were tested for their function as inhibitors of αSynuclein aggregation, as measured by the presence and extent of a lag phase in the kinetics of protein aggregation. Changes in the fluorescence intensity by the aggregate-binding fluorophore, Thioflavin T, were followed to report on the protein aggregation as a function of time.
Experimental Methods: Cell-free αSynuclein aggregation assays were set up with 200 μM of recombinant human αSynuclein (Proteos, Inc.) in the presence of 100 μM of compound (from 10 mM stock solutions in DMSO) or in 1% (v/v) DMSO as vehicle. All solutions were prepared in Dulbecco's phosphate-buffered saline (DPBS) buffer (pH 7.4) with 0.03% (v/v) NaN3 and 5 μM Thioflavin T (ThT), prepared as a master mix before addition of the protein or compounds. A protein master mix was then prepared and separated into 4 tubes (1 per condition). […]
as §1, with “Protein” for “Tau PFFs”, “walls (Corning Costar),” for “walls,”, “equilibrate, after which” for “equilibrate and”, “started.” for “initiated.”, “minutes. The plate was agitated by shaking in between fluorescence reads.” for “minutes without agitation.”
Data Analysis and Results: Fluorescence intensity data were collected on all the samples over time. The endpoint fluorescence intensity unit (FIU) value of the mean of vehicle-treated αSyn samples was set to 100%, and all other FIU values were normalized relative to it (see FIG. 1A). The end results were plotted as normalized ThT fluorescence (%) with respect to time.
Normalized ThT fluorescence values (% FIU) at t=24 hours were used to compare samples (see FIG. 1B). […]

| reduction in Tau fibril content [1] | inhibition of αSynuclein aggregation (normalized ThT fluorescence vs vehicle) [2] | Structure (SMILES) |
| --- | --- | --- |
| significant reduction | significant inhibition effect | CCCCCCCCCC1=C(C)C(=O)C(C)=C(C)C1=O [Compound C9, 2,3,5-trimethyl-6-nonylcyclohexa-2,5-diene-1,4-dione] |
| did not have a significant reduction | not statistically significant | CCCCCCCCC1=C(C)C(=O)C(C)=C(C)C1=O [Compound C8, 2,3,5-trimethyl-6-octylcyclohexa-2,5-diene-1,4-dione, reference compound] |
